Measurements taken from US20240190831A1, “TRANSTHYRETIN STABILIZING COMPOUNDS” (Protego Biopharma, Inc., priority 2021, published 2024).
Counter-ions that a name gives are not always drawn.

Assay: In vitro rat liver S9 stability assay (formation of tafamidis)
Format: in vitro ADME
Conditions: rat liver S9, 1 μM test compound, 37° C.
Protocol: A stability assay in liver S9 (rat or human) was used to evaluate the ability of a compound provided herein to convert to an active TTR stabilizer. The test compound was added to liver S9 and incubated at 37° C. in a water bath at a concentration of 1 μM. At each time point (0, 5, 10, 20, 30 and 60 min), stop solution (tolbutamide plus labetalol) was added to precipitate protein and mixed thoroughly. After centrifugation, an aliquot of supernatant was analyzed by LC-MS/MS. The percentage of formation of active agent was calculated at each time point.

**Q.** For O=C(N[C@@H]1CCC[C@@H]1O)c1ccc2nc(-c3cc(Cl)cc(Cl)c3)oc2c1 (relative stereo) [Compound 28, 2-(3,5-dichlorophenyl)-N-((cis)-2-hydroxycyclopentyl)benzo-[d]oxazole-6-carboxamide], which “Formation of tafamidis at 60 min” value is on record?
**A.** A (A is <25%)

**Q.** Which “Formation of tafamidis at 60 min” value does the source give for O=C(N[C@@H]1CCC[C@H]1O)c1ccc2nc(-c3cc(Cl)cc(Cl)c3)oc2c1 (relative stereo) [Compound 29, 2-(3,5-dichlorophenyl)-N-((trans)-2-hydroxycyclopentyl)benzo-[d]oxazole-6-carboxamide] here?
**A.** A (A is <25%)

**Q.** Which “Formation of tafamidis at 60 min” value does the source give for O=C(N[C@@H]1CC[C@H](O)C1)c1ccc2nc(-c3cc(Cl)cc(Cl)c3)oc2c1 (relative stereo) [Compound 30, 2-(3,5-dichlorophenyl)-N-((cis)-3-hydroxycyclopentyl)benzo-[d]oxazole-6-carboxamide] here?
**A.** A (A is <25%)

**Q.** With O=C(N[C@@H]1CC[C@@H](O)C1)c1ccc2nc(-c3cc(Cl)cc(Cl)c3)oc2c1 (relative stereo) [Compound 31, 2-(3,5-dichlorophenyl)-N-((trans)-3-hydroxycyclopentyl)benzo-[d]oxazole-6-carboxamide] as the compound, how does the “Formation of tafamidis at 60 min” value read?
**A.** A (A is <25%)

**Q.** With O=C(N[C@@H]1CCCC[C@@H]1O)c1ccc2nc(-c3cc(Cl)cc(Cl)c3)oc2c1 (relative stereo) [Compound 32, 2-(3,5-dichlorophenyl)-N-((cis)-2-hydroxycyclohexyl)benzo-[d]oxazole-6-carboxamide] as the compound, how does the “Formation of tafamidis at 60 min” value read?
**A.** A (A is <25%)

**Q.** For O=C(N[C@@H]1CCCC[C@H]1O)c1ccc2nc(-c3cc(Cl)cc(Cl)c3)oc2c1 (relative stereo) [Compound 33, 2-(3,5-dichlorophenyl)-N-((trans)-2-hydroxycyclohexyl)benzo-[d]oxazole-6-carboxamide], which “Formation of tafamidis at 60 min” value is on record?
**A.** A (A is <25%)

**Q.** For CN(C)[C@H]1CC[C@@H](OC(=O)c2ccc3nc(-c4cc(Cl)cc(Cl)c4)oc3c2)C1 (relative stereo) [Compound 46, Cis-3-(dimethylamino)cyclopentyl 2-(3,5-dichlorophenyl)benzo-[d]oxazole-6-carboxylate—HCl salt], which “Formation of tafamidis at 60 min” value is on record?
**A.** A (A is <25%)

**Q.** Which “Formation of tafamidis at 60 min” value does the source give for CN(C)[C@@H]1CC[C@@H](OC(=O)c2ccc3nc(-c4cc(Cl)cc(Cl)c4)oc3c2)C1 (relative stereo) [Compound 47, Trans-3-(dimethylamino)cyclopentyl 2-(3,5-dichlorophenyl)benzo-[d]oxazole-6-carboxylate—HCl salt] here?
**A.** A (A is <25%)

**Q.** For O=C(O[C@H]1CCN2CCC[C@H]12)c1ccc2nc(-c3cc(Cl)cc(Cl)c3)oc2c1 (relative stereo) [Compound 58, (cis)-hexahydro-1H-pyrrolizin-1-yl 2-(3,5-dichlorophenyl)benzo[d]oxazole-6-carboxylate], which “Formation of tafamidis at 60 min” value is on record?
**A.** A (A is <25%)

**Q.** For O=C(O[C@H]1CCN2CCC[C@@H]12)c1ccc2nc(-c3cc(Cl)cc(Cl)c3)oc2c1 (relative stereo) [Compound 59, (trans)-hexahydro-1H-pyrrolizin-1-yl 2-(3,5-dichlorophenyl)benzo[d]oxazole-6-carboxylate], which “Formation of tafamidis at 60 min” value is on record?
**A.** A (A is <25%)

**Q.** Which “Formation of tafamidis at 60 min” value does the source give for CC(CO)OC(=O)c1ccc2nc(-c3cc(Cl)cc(Cl)c3)oc2c1 (single isomer, unassigned) [Compound 43, 1-hydroxypropan-2-yl 2-(3,5-dichlorophenyl) benzo[d]oxazole-6-carboxylate] here?
**A.** C (C is ≥50 to <75%)

**Q.** With CC(CO)OC(=O)c1ccc2nc(-c3cc(Cl)cc(Cl)c3)oc2c1 (single isomer, unassigned) [Compound 44, 1-hydroxypropan-2-yl 2-(3,5-dichlorophenyl) benzo[d]oxazole-6-carboxylate] as the compound, how does the “Formation of tafamidis at 60 min” value read?
**A.** C (C is ≥50 to <75%)

**Q.** With O=C(O[C@H]1CCCN2CCC[C@H]12)c1ccc2nc(-c3cc(Cl)cc(Cl)c3)oc2c1 (single isomer, unassigned) [Compound 69, Octahydroindolizin-8-yl 2-(3,5-dichlorophenyl)benzo[d]oxazole-6-carboxylate] as the compound, how does the “Formation of tafamidis at 60 min” value read?
**A.** A (A is <25%)

**Q.** With O=C(O[C@H]1CCCN2CCC[C@@H]12)c1ccc2nc(-c3cc(Cl)cc(Cl)c3)oc2c1 (single isomer, unassigned) [Compound 70, Octahydroindolizin-8-yl 2-(3,5-dichlorophenyl)benzo[d]oxazole-6-carboxylate] as the compound, how does the “Formation of tafamidis at 60 min” value read?
**A.** A (A is <25%)

**Q.** With O=C(O[C@H]1CCCN2CCCC[C@H]12)c1ccc2nc(-c3cc(Cl)cc(Cl)c3)oc2c1 (single isomer, unassigned) [Compound 71, Octahydro-1H-quinolizin-1-yl 2-(3,5-dichlorophenyl)benzo[d]oxazole-6-carboxylate] as the compound, how does the “Formation of tafamidis at 60 min” value read?
**A.** B (B is ≥25 to <50%)

**Q.** With O=C(O[C@H]1CCCN2CCCC[C@@H]12)c1ccc2nc(-c3cc(Cl)cc(Cl)c3)oc2c1 (single isomer, unassigned) [Compound 72, Octahydro-1H-quinolizin-1-yl 2-(3,5-dichlorophenyl)benzo[d]oxazole-6-carboxylate] as the compound, how does the “Formation of tafamidis at 60 min” value read?
**A.** A (A is <25%)

**Q.** With CC(F)(F)CNC(=O)c1ccc2nc(-c3cc(Cl)cc(Cl)c3)oc2c1 [Compound 1, 2-(3,5-dichlorophenyl)-N-(2,2-difluoropropyl)benzo[d]oxazole-6-carboxamide] as the compound, how does the “Formation of tafamidis at 60 min” value read?
**A.** A (A is <25%)

**Q.** For CC(NC(=O)c1ccc2nc(-c3cc(Cl)cc(Cl)c3)oc2c1)C(F)F (centres unmarked) [Compound 2, 2-(3,5-dichlorophenyl)-N-(1,1-difluoropropan-2-yl)benzo[d]oxazole-6-carboxamide], which “Formation of tafamidis at 60 min” value is on record?
**A.** A (A is <25%)

**Q.** Which “Formation of tafamidis at 60 min” value does the source give for O=C(NCC(F)(F)C(F)(F)F)c1ccc2nc(-c3cc(Cl)cc(Cl)c3)oc2c1 [Compound 3, 2-(3,5-dichlorophenyl)-N-(2,2,3,3,3-pentafluoropropyl)benzo[d]oxazole-6-carboxamide] here?
**A.** A (A is <25%)

**Q.** For NC(=O)c1ccc2nc(-c3cc(Cl)cc(Cl)c3)oc2c1 [Compound 4, 2-(3,5-dichlorophenyl)benzo[d]oxazole-6-carboxamide], which “Formation of tafamidis at 60 min” value is on record?
**A.** A (A is <25%)

**Q.** For N#CCNC(=O)c1ccc2nc(-c3cc(Cl)cc(Cl)c3)oc2c1 [Compound 5, N-(cyanomethyl)-2-(3,5-dichlorophenyl)benzo[d]oxazole-6-carboxamide], which “Formation of tafamidis at 60 min” value is on record?
**A.** A (A is <25%)

**Q.** For COCCNC(=O)c1ccc2nc(-c3cc(Cl)cc(Cl)c3)oc2c1 [Compound 6, 2-(3,5-dichlorophenyl)-N-(2-methoxyethyl)benzo[d]oxazole-6-carboxamide], which “Formation of tafamidis at 60 min” value is on record?
**A.** A (A is <25%)

**Q.** Which “Formation of tafamidis at 60 min” value does the source give for CN(C)CCN(C)C(=O)c1ccc2nc(-c3cc(Cl)cc(Cl)c3)oc2c1 [Compound 8, 2-(3,5-dichlorophenyl)-N-(2-(dimethylamino)ethyl)-N-methylbenzo[d]oxazole-6-carboxamide] here?
**A.** A (A is <25%)

**Q.** For CNCCNC(=O)c1ccc2nc(-c3cc(Cl)cc(Cl)c3)oc2c1 [Compound 9, 2-(3,5-dichlorophenyl)-N-(2-(methylamino)ethyl)benzo[d]oxazole-6-carboxamide hydrochloride], which “Formation of tafamidis at 60 min” value is on record?
**A.** A (A is <25%)

**Q.** Which “Formation of tafamidis at 60 min” value does the source give for CC(CO)NC(=O)c1ccc2nc(-c3cc(Cl)cc(Cl)c3)oc2c1 (centres unmarked) [Compound 10, 2-(3,5-dichlorophenyl)-N-(1-hydroxypropan-2-yl)benzo[d]oxazole-6-carboxamide] here?
**A.** A (A is <25%)

**Q.** Which “Formation of tafamidis at 60 min” value does the source give for CC(O)CNC(=O)c1ccc2nc(-c3cc(Cl)cc(Cl)c3)oc2c1 (centres unmarked) [Compound 11, 2-(3,5-dichlorophenyl)-N-(2-hydroxypropyl)benzo[d]oxazole-6-carboxamide] here?
**A.** A (A is <25%)

**Q.** Which “Formation of tafamidis at 60 min” value does the source give for O=C(NC1CC1(F)F)c1ccc2nc(-c3cc(Cl)cc(Cl)c3)oc2c1 (centres unmarked) [Compound 12, 2-(3,5-dichlorophenyl)-N-(2,2-difluorocyclopropyl)benzo[d]-oxazole-6-carboxamide] here?
**A.** A (A is <25%)

**Q.** With O=C(NC1CCCCC1(F)F)c1ccc2nc(-c3cc(Cl)cc(Cl)c3)oc2c1 (centres unmarked) [Compound 13, 2-(3,5-dichlorophenyl)-N-(2,2-difluorocyclohexyl)benzo[d]oxazole-6-carboxamide] as the compound, how does the “Formation of tafamidis at 60 min” value read?
**A.** A (A is <25%)

**Q.** With O=C(NC1CCCC(F)(F)C1)c1ccc2nc(-c3cc(Cl)cc(Cl)c3)oc2c1 (centres unmarked) [Compound 14, 2-(3,5-dichlorophenyl)-N-(3,3-difluorocyclohexyl)benzo[d]oxazole-6-carboxamide] as the compound, how does the “Formation of tafamidis at 60 min” value read?
**A.** A (A is <25%)

**Q.** Which “Formation of tafamidis at 60 min” value does the source give for O=C(NC1CCC(F)(F)CC1)c1ccc2nc(-c3cc(Cl)cc(Cl)c3)oc2c1 [Compound 15, 2-(3,5-dichlorophenyl)-N-(4,4-difluorocyclohexyl)benzo[d]oxazole-6-carboxamide] here?
**A.** A (A is <25%)

**Q.** Which “Formation of tafamidis at 60 min” value does the source give for O=C(NC1COC1)c1ccc2nc(-c3cc(Cl)cc(Cl)c3)oc2c1 [Compound 16, 2-(3,5-dichlorophenyl)-N-(oxetan-3-yl)benzo[d]oxazole-6-carboxamide] here?
**A.** A (A is <25%)

**Q.** For O=C(NC1CCOC1)c1ccc2nc(-c3cc(Cl)cc(Cl)c3)oc2c1 (centres unmarked) [Compound 17, 2-(3,5-dichlorophenyl)-N-(tetrahydrofuran-3-yl)benzo[d]oxazole-6-carboxamide], which “Formation of tafamidis at 60 min” value is on record?
**A.** A (A is <25%)

**Q.** Which “Formation of tafamidis at 60 min” value does the source give for O=C(NC1CCC1)c1ccc2nc(-c3cc(Cl)cc(Cl)c3)oc2c1 [Compound 18, N-cyclobutyl-2-(3,5-dichlorophenyl)benzo[d]oxazole-6-carboxamide] here?
**A.** A (A is <25%)

**Q.** For O=C(NC1CCCC1)c1ccc2nc(-c3cc(Cl)cc(Cl)c3)oc2c1 [Compound 19, N-cyclopentyl-2-(3,5-dichlorophenyl)benzo[d]oxazole-6-carboxamide], which “Formation of tafamidis at 60 min” value is on record?
**A.** A (A is <25%)

**Q.** Which “Formation of tafamidis at 60 min” value does the source give for O=C(NC1CC1)c1ccc2nc(-c3cc(Cl)cc(Cl)c3)oc2c1 [Compound 20, N-cyclopropyl-2-(3,5-dichlorophenyl)benzo[d]oxazole-6-carboxamide] here?
**A.** A (A is <25%)
